Experimental data published in patent publication US4263430A, “2-Methyl-5-(2-hydroxystyryl)-1,3,4-thiadiazole” (BASF Aktiengesellschaft, priority 1978, dated 1981).

Columns and labels:
cardiac beta-1-receptors [1] = settings: mouse, in vivo
in vivo = settings: mouse, read-out: Acute toxicity LD50
cardiac beta-1-receptors [2] = target: T1, cardiac beta-1-receptors (Felis catus, UniProt Q9TST6); assay: Beta-sympatholytic action: inhibition of isoproterenol-induced tachycardia in narcotized cats; assay type: in vivo; settings: for ED50: cat, iv, read-out: Beta-sympatholytic action ED50%: dose which inhibits the isoproterenol-induced tachycardia by 50%; for R.A. (relative activity) / factor by which doses blocking the cardiac beta-1-receptors are smaller than those of propranolol: cats; for R.A. (relative activity): Propranolol = 1.00; for factor by which doses blocking the cardiac beta-1-receptors are smaller than those of propranolol: versus propranolol
T1 construct: increases the pulse rate of narcotized cats (weighing 2-4 kg) by an average of 40%; from tissue; host or cells: heart of living narcotized cats (in vivo, endogenous receptor)
T1 sequence (Q9TST6 whole entry): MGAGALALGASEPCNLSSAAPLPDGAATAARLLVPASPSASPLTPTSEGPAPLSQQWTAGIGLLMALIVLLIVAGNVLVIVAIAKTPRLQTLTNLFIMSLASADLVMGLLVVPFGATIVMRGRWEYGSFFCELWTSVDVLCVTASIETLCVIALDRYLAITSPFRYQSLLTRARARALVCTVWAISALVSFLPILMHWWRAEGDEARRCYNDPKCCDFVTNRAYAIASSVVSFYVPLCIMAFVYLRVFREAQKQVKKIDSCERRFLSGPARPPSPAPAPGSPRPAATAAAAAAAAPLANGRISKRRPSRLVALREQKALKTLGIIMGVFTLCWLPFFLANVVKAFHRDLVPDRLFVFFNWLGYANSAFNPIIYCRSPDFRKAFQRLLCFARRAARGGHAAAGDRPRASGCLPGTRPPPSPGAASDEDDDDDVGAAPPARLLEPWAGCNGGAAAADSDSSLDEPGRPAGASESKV
Description: The beta-sympatholytic action of the compounds was tested on cats. […] The following test methods were used:
Beta-sympatholytic agents inhibit the tachycardia.
^1 Inhibition of isoproterenolinduced tachycardia in cats under
hexobarbital narcosis. Compound administered intravenously.

Compound | Therapeutic range relative (cardiac beta-1-receptors [1]) | LD50 (in vivo) | ED50 (cardiac beta-1-receptors [2]) | R.A. (relative activity) (cardiac beta-1-receptors [2]) | factor by which doses blocking the cardiac beta-1-receptors are smaller than those of propranolol (cardiac beta-1-receptors [2])
Cc1nnc(/C=C/c2ccccc2OCC(O)CNC(C)C)s1 (stereo not shown) [Compound 3, 2-Methyl-5-[2-(2-hydroxy-3-isopropylamino-propoxy)-styryl]-1,3,4-thiadiazol] | 10.84 | 83 mg/kg | 0.01 mg/kg | 14.10 | 
Cc1nnc(/C=C/c2ccccc2OCC(O)CNC2CC2)s1 (stereo not shown) [Compound 4, 2-Methyl-5-[2-(2-hydroxy-3-cyclopropylamino-propoxy)-styryl]-1,3,4-thiadiazole] | 7.55 | 69.4 mg/kg | 0.012 mg/kg | 11.75 | 12
Cc1nnc(/C=C/c2ccccc2OCC(O)CNC(C)(C)C)s1 (stereo not shown) [Compound 5, 2-Methyl-5-[2-(2-hydroxy-3-tert.-butylamino-propoxy)-styryl]-1,3,4-thiadiazole] | 13.73 |  |  | 25.22 | 25
C#CC(C)NCC(O)COc1ccccc1/C=C/c1nnc(C)s1 (stereo not shown) [Compound 6, 2-Methyl-5-[2-(2-hydroxy-3-(1-butyn-3-ylamino)-propoxy)styryl]-1,3,4-thiadiazole] | 30.68 | 261 mg/kg | 0.0111 mg/kg | 12.70 | 
